Assay results published in ChEMBL document CHEMBL4052685, “Design, synthesis and tumor cell growth inhibitory activity of 3-nitro-2H-cheromene derivatives as histone deacetylaes inhibitors” (Bioorg Med Chem, 2017).

Experiments:
PC-3 = assay: Antiproliferative activity against human PC3 cells after 48 hrs by MTT assay; type: functional
MCF7 = assay: Antiproliferative activity against human MCF7 cells after 48 hrs by MTT assay; type: functional
A549 = assay: Antiproliferative activity against human A549 cells after 48 hrs by MTT assay; type: functional
Histone deacetylase 1 = Histone deacetylase 1 (Homo sapiens, UniProt Q13547); assay: Inhibition of HDAC1 (unknown origin) using Ac-Leu-GlyLys(Ac)-AMC as substrate preincubated for 10 mins followed by substrate addition measured after 30 mins by fluorescence analysis
HeLa = assay: Antiproliferative activity against human HeLa cells after 48 hrs by MTT assay; type: functional
Histone deacetylase 2 [1] = target: T1, Histone deacetylase 2 (Homo sapiens, UniProt Q92769); settings: at 10 µM
Description: Inhibition of HDAC2 (unknown origin) at 10 uM using Ac-Leu-GlyLys(Ac)-AMC as substrate preincubated for 10 mins followed by substrate addition measured after 30 mins by fluorescence analysis

Histone deacetylase 2 [2] = target: T1, Histone deacetylase 2; assay: Inhibition of HDAC2 (unknown origin) using Ac-Leu-GlyLys(Ac)-AMC as substrate preincubated for 10 mins followed by substrate addition measured after 30 mins by fluorescence analysis
K562 = assay: Antiproliferative activity against human K562 cells after 48 hrs by MTT assay; type: functional

T1 sequence (Q92769 whole entry): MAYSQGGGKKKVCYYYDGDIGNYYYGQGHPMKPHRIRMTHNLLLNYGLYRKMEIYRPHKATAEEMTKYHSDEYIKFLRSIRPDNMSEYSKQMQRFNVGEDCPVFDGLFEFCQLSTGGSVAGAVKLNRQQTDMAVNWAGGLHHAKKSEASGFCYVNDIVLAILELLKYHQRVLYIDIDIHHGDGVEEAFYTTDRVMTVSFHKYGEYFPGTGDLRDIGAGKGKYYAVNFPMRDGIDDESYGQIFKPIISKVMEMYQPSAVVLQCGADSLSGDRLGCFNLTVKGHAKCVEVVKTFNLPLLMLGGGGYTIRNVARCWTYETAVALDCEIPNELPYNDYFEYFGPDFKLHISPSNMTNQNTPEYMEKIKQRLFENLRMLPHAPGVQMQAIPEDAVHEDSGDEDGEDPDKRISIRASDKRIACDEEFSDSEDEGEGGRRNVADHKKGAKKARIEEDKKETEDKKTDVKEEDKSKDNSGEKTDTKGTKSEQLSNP
Chain of Histone deacetylase 1 (Q13547 whole entry): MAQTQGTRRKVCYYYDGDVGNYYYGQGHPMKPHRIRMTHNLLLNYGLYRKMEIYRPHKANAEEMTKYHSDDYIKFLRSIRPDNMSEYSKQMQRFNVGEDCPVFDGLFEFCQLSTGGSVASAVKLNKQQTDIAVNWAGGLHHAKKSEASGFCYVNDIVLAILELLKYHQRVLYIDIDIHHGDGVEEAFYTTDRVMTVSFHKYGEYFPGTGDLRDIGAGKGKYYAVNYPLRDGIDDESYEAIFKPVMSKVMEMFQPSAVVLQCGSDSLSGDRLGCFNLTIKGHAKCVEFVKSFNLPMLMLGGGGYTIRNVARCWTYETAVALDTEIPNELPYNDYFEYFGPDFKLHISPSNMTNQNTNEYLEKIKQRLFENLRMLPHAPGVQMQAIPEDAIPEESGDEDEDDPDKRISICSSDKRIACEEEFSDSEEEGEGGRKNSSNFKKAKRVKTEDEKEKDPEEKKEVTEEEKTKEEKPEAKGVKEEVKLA

| Structure (SMILES) | GI50 (PC-3; Homo sapiens, PC-3, 48 h) | GI50 (MCF7; Homo sapiens, MCF7, 48 h) | GI50 (A549; Homo sapiens, A549, 48 h) | IC50 (Histone deacetylase 1) | GI50 (HeLa; Homo sapiens, HeLa, 48 h) | inhibition (Histone deacetylase 2 [1]) | IC50 (Histone deacetylase 2 [2]) | GI50 (K562; Homo sapiens, K562, 48 h) | GI50 (PC-3) | GI50 (MCF7) | GI50 (A549) | GI50 (HeLa) | GI50 (K562) |
| --- | --- | --- | --- | --- | --- | --- | --- | --- | --- | --- | --- | --- | --- |
| CCOc1cc(NC(=O)CCCCNC(=O)[C@H](N)Cc2ccccc2)cc2c1OCC([N+](=O)[O-])=C2 | 11.2 µM | 8.72 µM | 5.95 µM | 0.742 µM | > 20 µM | 90% | 2.91 µM | 3.56 µM | – | – | – | – | – |
| CCOc1cc(NC(=O)CCCCCC(=O)Nc2ccccc2N)cc2c1OCC([N+](=O)[O-])=C2 | > 20 µM | 19.4 µM | 12.2 µM | 0.288 µM | 14.9 µM | 96% | 0.759 µM | 3.96 µM | – | – | – | – | – |
| CCOc1cc(NC(=O)CCCCCC(=O)Nc2cc(-c3ccc(C)s3)ccc2N)cc2c1OCC([N+](=O)[O-])=C2 | 11.4 µM | > 20 µM | 5.07 µM | 0.366 µM | > 20 µM | 62% | 1.79 µM | 2.92 µM | – | – | – | – | – |
| CCOc1cc(NC(=O)CCCCC(=O)Nc2cc(-c3ccc(C)s3)ccc2N)cc2c1OCC([N+](=O)[O-])=C2 | 13.5 µM | 7.91 µM | 13.8 µM | – | 18.4 µM | 32% | – | 2.94 µM | – | – | – | – | – |
| CCOc1cc(NC(=O)CCCCCCC(=O)NCCc2ccccc2)cc2c1OCC([N+](=O)[O-])=C2 | 10.9 µM | 19.1 µM | 18.2 µM | – | > 20 µM | 8% | – | 4.12 µM | – | – | – | – | – |
| CCOc1cc(NC(=O)CCCCCC(=O)NCCc2ccccc2)cc2c1OCC([N+](=O)[O-])=C2 | 7.09 µM | 6.12 µM | 5.32 µM | – | 6.08 µM | 0% | – | 3.47 µM | – | – | – | – | – |
| CCOc1cc(NC(=O)CCCCCC(=O)Nc2cc(-c3ccccc3)ccc2N)cc2c1OCC([N+](=O)[O-])=C2 | 7.08 µM | 7.03 µM | 4.86 µM | 0.128 µM | 19.8 µM | 81% | 0.659 µM | 3.21 µM | – | – | – | – | – |
| O=C(CCCCCCC(=O)Nc1ccccc1)NO [VORINOSTAT] | – | – | – | – | – | – | – | – | 18.8 µM | 17.9 µM | 19.4 µM | 19.2 µM | 3.66 µM |
| CCOc1cc(NC(=O)CCCCC(=O)Nc2ccccc2N)cc2c1OCC([N+](=O)[O-])=C2 | 18.9 µM | 17.3 µM | 9.63 µM | – | 13.1 µM | 91% | – | 3.68 µM | – | – | – | – | – |
| Nc1ccccc1NC(=O)c1ccc(CNC(=O)OCc2cccnc2)cc1 [ENTINOSTAT] | 19.1 µM | 19.3 µM | 18.4 µM | – | 19.2 µM | 98% | – | 9.32 µM | – | – | – | – | – |
| CCOc1cc(NC(=O)CCCCC(=O)NCCc2ccccc2)cc2c1OCC([N+](=O)[O-])=C2 | 6.46 µM | 2.82 µM | 6.42 µM | – | 9.33 µM | 3% | – | 2.9 µM | – | – | – | – | – |
| CCOc1cc(NC(=O)CCCCCNC(=O)[C@H](N)Cc2ccccc2)cc2c1OCC([N+](=O)[O-])=C2 | – | – | – | 0.448 µM | – | – | 1.29 µM | – | – | – | – | – | – |
| CCOc1cc(NC(=O)CCCCCCC(=O)Nc2cc(-c3ccccc3)ccc2N)cc2c1OCC([N+](=O)[O-])=C2 | 10.7 µM | 9.37 µM | 5.4 µM | 0.179 µM | 16.2 µM | 72% | 0.827 µM | 2 µM | – | – | – | – | – |
| CCOc1cc(NC(=O)CCCCCNC(=O)Cc2ccccc2)cc2c1OCC([N+](=O)[O-])=C2 | 13.2 µM | 4.17 µM | 4.8 µM | – | 5.8 µM | 0% | – | 1.53 µM | – | – | – | – | – |
| CCOc1cc(NC(=O)CCCCCCC(=O)Nc2cc(-c3ccc(C)s3)ccc2N)cc2c1OCC([N+](=O)[O-])=C2 | 6.36 µM | 5.33 µM | 5.83 µM | – | > 20 µM | 55% | – | 3.11 µM | – | – | – | – | – |
| CCOc1cc(NC(=O)CCCCCCC(=O)Nc2ccccc2N)cc2c1OCC([N+](=O)[O-])=C2 | 8.63 µM | 13.5 µM | 11.7 µM | 0.232 µM | > 20 µM | 93% | 0.439 µM | 3.36 µM | – | – | – | – | – |
| CCOc1cc(NC(=O)CCCCC(=O)Nc2cc(-c3ccccc3)ccc2N)cc2c1OCC([N+](=O)[O-])=C2 | 14.6 µM | 19.9 µM | 7.46 µM | – | > 20 µM | 59% | – | 5.27 µM | – | – | – | – | – |
| CCOc1cc(NC(=O)CCCCCNC(=O)CCCc2ccccc2)cc2c1OCC([N+](=O)[O-])=C2 | 7.17 µM | 5.96 µM | 5.23 µM | – | 6.74 µM | 8% | – | 3.32 µM | – | – | – | – | – |
